Laboratory results as given in patent publication US20050221328A1, “Inhibitors of inflammatory gene activity and cholesterol biosynthesis” (Wyeth, priority 2002, published 2005).

How the values were obtained:
[1] = test system: hepatic inflammatory gene expression
Description: Ovariectornized C57BL/6 mice (16-20g) (Taconic) were separated into groups of 8. After 5-7 days of recuperation, the mice were fed a casein based diet (#8117, Test Diet, Richmond, IN) for five days. […] At the end of the experimental period, the liver was collected for RNA analysis.
Liver total RNA was prepared using Trizol reagent (BRL) and quantitated by real time RT-PCR using an ABI PRISM 7700 Detection System according to the manufacturer's protocol (Applied Biosystem). The data was analyzed using the Sequence Dector v1.7 software (Applied Biosystems) and normalized to GAPDH using Applied Biosystems primer set.
Feeding C57BL/6 mice a high fat diet containing cholate has been shown previously to induce inflammatory gene expression in the mouse liver after 3-5 weeks (Liao et al '93 JCI 91:2572, Evans et al. '01 Circ Res 89:823 & Miyake et al '00 JBC 275:21805).
To determine whether signaling via FXR was necessary to result in inflammatory gene expression, 1% UDCA was supplemented into the chow diet.
In particular, referring to FIG. 21a-d, C57BL/6 mice were fed either a chow, atherogenic or high fat diet (atherogenic diet without sodium cholate) as indicated. After 5 weeks, hepatic mRNA levels of the indicated genes were determined by real time PCR. […] After 5 days, hepatic mRNA levels of the indicated genes were determined by real time PCR. Data are reported as mean±SEM for each group. Referring to FIG. 23a-b: C57BL/6 mice were fed a chow diet supplemented with 1% ursodeoxycholic acid (UDCA). After 5 days, hepatic mRNA levels of the indicated genes were determined by real time PCR. […] Data are reported as mean±SEM for each group.

[2] = test system: HepG2 cells; assay: Gene expression in HepG2 cells treated 24 hr with CDCA or GW 4064; format: cell-based, human; conditions: HepG2, 24 hr
Description: HepG2 cells were maintained in growth media at 37° C. in a 5% CO2 incubator. The cells were seeded in deficient growth media (phenol red free DMEM (Gibco BRL) supplemented with heat-inactivated 10% FBS, 1% Glutamax, 1% MEM non-essential amino acids, 100 U/ml penicillin and 100 μg/ml streptomycin) at 4-5×10^5 cells per well in a 6 well dish (Falcon). The cells were then placed into serum deficient media for 24 hr before addition of the compounds for an additional 24 hrs. The cells were then harvested for RNA analysis.
To further investigate the possibility that bile acid signaling through FXR can promote inflammatory gene expression, experiments were conducted in the hepatocyte cell line, HepG2. […] HepG2 cells express a number of inflammatory genes including ICAM-1 and M-CSF constitutively (Stonans et al '99 Cytokine 11:151). […] As positive controls, the induction of SHP mRNA and the repression of cyp7a were confirmed.
Referring to FIG. 24a-b, HepG2 cells were treated for 24 hr with increasing concentrations of chenodeoxycholic acid (CDCA). […] Data are reported as mean±SEM for each group. C57BL/6 mice. […] Data are reported as mean±SEM for each group.

[3] = test system: SHP; assay: Regulation of SHP expression in mouse liver, six weeks treatment, real time PCR; format: in vivo
Description: Several experiments were conducted to investigate the regulation of SHP expression, as follows. Referring to FIG. 9, ERα regulation of SHP expression in mouse liver was studied. […] Liver expression of SHP was monitored by real time PCR, with normalization for GAPDH expression. […] ICI182780 inhibited this induction.

[4] = test system: Fnk, JAB, LIX, bcl-3 and SHP; assay: Liver expression of Fnk, JAB, LIX, bcl-3 and SHP by realtime PCR after estrogen receptor ligand pretreatment and IL-1β; conditions: mice; 100 ug/kg/day EE, 1 or 10 mg/kg/day E2, 30 mg/kg/day genistein, 5 mg/kg/day raloxifene, 10 mg/kg/day ICI182780; plus IL-1β
Description: Referring to FIG. 3a, to distinguish these two mechanisms, the IL-1β fold induction of Fnk, JAB, LIX, and bcl-3 and the IL-1β fold repression of SHP was quantified in animals pretreated with vehicle (black bars) or 100 ug/kg/day EE (grey bars). Liver RNA levels of each gene (mean +/−SEM) were determined by realtime PCR of RNA from each individual animal.
Referring to FIGS. 4a, 4b, 4c, 4d and 4e, experiments were conducted to determine whether EE blocks IL-1β induction of gene expression by an estrogen receptor (ER) dependent mechanism. Estrogens can regulate gene expression by many mechanisms including ER independent pathways such as antioxidant mechanisms. […] Liver expression levels of Fnk, JAB, LIX, bcl-3 and SHP (mean +/−SEM) were determined by realtime PCR.
Referring to FIGS. 5a, 5b, 5c, 5d, and 5e, experiments were conducted to determine whether ERα is required for EE regulation of gene expression in the liver. To determine whether ERα or ERβ mediated the EE effects on IL-1β gene expression in the liver, C57BL/6 wild type mice, C57BL/6 ERαKO mice, or 129 ERβKO mice were pretreated with vehicle (black bars) or […] EE (gray bars) for 5 days followed by a 1 hour treatment with IL-1β. Liver expression levels of Fnk, JAB, LIX, bcl-3, and SHP (mean +/−SEM) were quantified by realtime PCR, with expression in animals receiving vehicle+PBS defined as 1.0.

[5] = test system: human SHP promoter; assay: hSHP promoter luciferase reporter in HepG2 or 293 cells cotransfected with human ERα; format: cell-based; conditions: 293 cells with human ERα; for SHP promoter activity, compound alone: 10 nM E2 or 1 uM compound, 24 hours
Description: Referring to FIGS. 11a and 11b, ERα regulation of hSHP promoter activity in human cells was examined. Human HepG2 or 293 cells were cotransfected with a control SV40 driven β-galactosidase plasmid, a luceriferase plasmid driven by 1.4 kb of the human SHP promoter, and an expression plasmid encoding either no protein or human ERα. […] Cell extracts were then analyzed for luciferase activity normalized for β-galactosidase activity.
Referring to FIGS. 12a, 12b, and 12c, ERα regulation of hSHP promoter activity in 293 cells was examined. Referring to FIGS. 12a and 12b, 293 cells were cotransfected with a control SV4O driven […] plasmid, a luceriferase plasmid driven by either 1.4 kb of the human SHP promoter or a synthetic 2×ERE/TK promoter, and an expression plasmid for human ERα. […] Cell extracts were then analyzed for luciferase activity with normalization for β-galaetosidase activity.

[6] = C57BL/6 mice, chow with CA 0.01-1.0%, 5 days
[7] = CDCA 1-100 uM or GW 4064 1-1000 nM

## C[C@H](CCC(=O)O)[C@H]1CC[C@H]2[C@@H]3[C@H](O)C[C@@H]4C[C@H](O)CC[C@]4(C)[C@H]3C[C@H](O)[C@]12C [CA, cholic acid]
[1]; [6]
  hepatic ICAM-1 mRNA: dose dependent induction
  induction of hepatic RANTES mRNA: 1.75 fold
  induction of hepatic TNFα mRNA: 4 fold
  induction of hepatic VCAM-1 mRNA: 3 fold
[1]; chow fed mice, acute exposure
  CA supplementation sufficient to induce inflammatory gene expression: 0.3%
[1]; mice fed 1% CA or UDCA, 5 days
  induction of hepatic SHP expression: only observed with CA

## C[C@H](CCC(=O)O)[C@H]1CC[C@H]2[C@@H]3[C@H](O)C[C@@H]4C[C@H](O)CC[C@]4(C)[C@H]3CC[C@]12C [CDCA, chenodeoxycholic acid]
[2]; [7]
  ICAM-1 expression: induced in a dose dependent manner
  M-CSF expression: induced in a dose dependent manner
[2]; positive control
  SHP mRNA: induction
  cyp7a expression: repression

## C[C@]12CC[C@@H]3c4ccc(O)cc4C[C@@H](CCCCCCCCC[S+]([O-])CCCC(F)(F)C(F)(F)F)[C@H]3[C@@H]1CC[C@@H]2O (stereo partly drawn) [ICI-182780]
[3]; WT mice, 10 ug/kg/day E2+5 mg/kg/day ICI182780, six weeks
  effect on E2 induction of liver SHP mRNA: inhibited
[4]
  effect on regulation of liver Fnk, JAB, LIX, bcl-3 and SHP expression vs IL-1β alone: no effect
[5]
  SHP promoter activity, compound alone: inactive alone
[5]; 1 uM compound plus 10 nM E2
  effect on E2 activity at SHP promoter: antagonized

## C[C@H](CCC(=O)O)[C@H]1CC[C@H]2[C@@H]3[C@@H](O)C[C@@H]4C[C@H](O)CC[C@]4(C)[C@H]3CC[C@]12C [UDCA, ursodeoxycholic acid]
[1]; mouse, in vivo
  cyp3a expression: induced
  cyp7a expression: repress

## CC/C(=C(\c1ccccc1)c1ccc(OCCN(C)C)cc1)c1ccccc1 [tamoxifen]
[3]; ovariectomized wildtype mice, sc six weeks, 10 ug/kg/day E2, 5 mg/kg/day tamoxifen, 5 mg/kg/day PPT
  liver SHP mRNA levels, WT animals: induced
[5]
  SHP promoter activity, compound alone: stimulated
